In ChEMBL document CHEMBL5214896, “Discovery of Selective Pituitary Adenylate Cyclase 1 Receptor (PAC1R) Antagonist Peptides Potent in a Maxadilan/PACAP38-Induced Increase in Blood Flow Pharmacodynamic Model” (J Med Chem, 2021):
Residues, ends and D or L forms follow the SMILES beside them.

Legend:
Rattus norvegicus = assay: In vivo Antagonist activity at Maxadilan-induced Sprague-Dawley rat assessed as reduction in Maxadilan-induced blood flow at 0.3 mg/kg,sc measured after 45 mins; format: functional; set-up: scale not given: the % may be the effect or the level left; conditions: 0.75 h
[1] = molecular target: T1, Pituitary adenylate cyclase-activating polypeptide type I receptor (Rattus norvegicus) (UniProt P32215); assay: Antagonist activity at PAC1R in rat RG2 cells assessed as inhibition of Maxadilan-induced cAMP accumulation pre-incubated for 30 mins followed by agonist addition and measured after 75 mins by Eu-cAMP tracer based LANCE ultra cAMP assay; format: cell-based; conditions: filed as antagonist, time 105.0 min
T1 sequence (whole entry): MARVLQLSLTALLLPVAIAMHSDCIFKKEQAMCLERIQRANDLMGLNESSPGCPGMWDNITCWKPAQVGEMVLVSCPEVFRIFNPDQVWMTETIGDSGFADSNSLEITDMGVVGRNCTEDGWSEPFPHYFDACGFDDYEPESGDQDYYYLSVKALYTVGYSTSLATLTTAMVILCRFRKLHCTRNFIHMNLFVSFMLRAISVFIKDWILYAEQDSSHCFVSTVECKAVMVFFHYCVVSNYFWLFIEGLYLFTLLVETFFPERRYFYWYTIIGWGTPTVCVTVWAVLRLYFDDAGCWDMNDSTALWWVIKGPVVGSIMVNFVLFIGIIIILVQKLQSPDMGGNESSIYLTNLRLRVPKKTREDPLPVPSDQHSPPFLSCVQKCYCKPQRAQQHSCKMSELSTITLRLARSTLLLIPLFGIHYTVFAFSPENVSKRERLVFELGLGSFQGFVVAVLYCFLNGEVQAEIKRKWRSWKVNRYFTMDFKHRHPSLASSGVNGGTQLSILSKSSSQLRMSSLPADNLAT

[2] = Bioavailability in Sprague-Dawley rat at 10 mg/kg,sc measured upto 6 hrs by LC-MS analysis; format: ADME, organism-based; conditions: in vivo
[3] = Half life in Sprague-Dawley rat at 2 mg/kg,iv measured upto 6 hrs by LC-MS analysis; format: ADME, organism-based; conditions: in vivo
[4] = AUC (0-infinity) in Sprague-Dawley rat at 10 mg/kg,sc measured upto 6 hrs by LC-MS analysis; format: ADME, organism-based; set-up: dose 10 mg/kg, time < 6 hrs, route sc; conditions: in vivo
[5] = Clearance in Sprague-Dawley rat at 2 mg/kg,iv measured upto 6 hrs by LC-MS analysis; format: ADME, organism-based; conditions: in vivo
[6] = Cmax in Sprague-Dawley rat at 2 mg/kg,iv measured upto 6 hrs by LC-MS analysis; format: ADME, organism-based; set-up: time < 6 hrs, dose 2 mg/kg, route iv; conditions: in vivo
[7] = Volume of distribution at steady state in Sprague-Dawley rat at 2 mg/kg,iv measured upto 6 hrs by LC-MS analysis; format: ADME, organism-based; conditions: in vivo, read-out: Vdss
[8] = AUC (0-infinity) in Sprague-Dawley rat at 2 mg/kg,iv measured upto 6 hrs by LC-MS analysis; format: ADME, organism-based; set-up: dose 2 mg/kg, time < 6 hrs, route iv; conditions: in vivo
[9] = molecular target: T2, Pituitary adenylate cyclase-activating polypeptide type I receptor (Homo sapiens, UniProt P41586); assay: Antagonist activity at PAC1R in human SH-SY5Y cells assessed as inhibition of PACAP38-induced cAMP accumulation pre-incubated for 30 mins followed by agonist addition and measured after 75 mins by Eu-cAMP tracer based LANCE ultra cAMP assay; format: cell-based
[10] = Tmax in Sprague-Dawley rat at 10 mg/kg,sc measured upto 6 hrs by LC-MS analysis; format: ADME, organism-based; conditions: in vivo
[11] = Cmax in Sprague-Dawley rat at 10 mg/kg,sc measured upto 6 hrs by LC-MS analysis; format: ADME, organism-based; set-up: dose 10 mg/kg, time < 6 hrs, route sc; conditions: in vivo
[12] = molecular target: T1, Pituitary adenylate cyclase-activating polypeptide type I receptor (Rattus norvegicus); assay: Antagonist activity at PAC1R in rat RG2 cells assessed as inhibition of PACAP38-induced cAMP accumulation pre-incubated for 30 mins followed by agonist addition and measured after 75 mins by Eu-cAMP tracer based LANCE ultra cAMP assay; format: cell-based; conditions: filed as antagonist, time 105.0 min
[13] = molecular target: T2, Pituitary adenylate cyclase-activating polypeptide type I receptor; assay: Antagonist activity at PAC1R in human SH-SY5Y cells assessed as inhibition of Maxadilan-induced cAMP accumulation pre-incubated for 30 mins followed by agonist addition and measured after 75 mins by Eu-cAMP tracer based LANCE ultra cAMP assay; format: cell-based; conditions: filed as antagonist, time 105.0 min
Target sequence in this assay (P41586 21-468 limits assumed): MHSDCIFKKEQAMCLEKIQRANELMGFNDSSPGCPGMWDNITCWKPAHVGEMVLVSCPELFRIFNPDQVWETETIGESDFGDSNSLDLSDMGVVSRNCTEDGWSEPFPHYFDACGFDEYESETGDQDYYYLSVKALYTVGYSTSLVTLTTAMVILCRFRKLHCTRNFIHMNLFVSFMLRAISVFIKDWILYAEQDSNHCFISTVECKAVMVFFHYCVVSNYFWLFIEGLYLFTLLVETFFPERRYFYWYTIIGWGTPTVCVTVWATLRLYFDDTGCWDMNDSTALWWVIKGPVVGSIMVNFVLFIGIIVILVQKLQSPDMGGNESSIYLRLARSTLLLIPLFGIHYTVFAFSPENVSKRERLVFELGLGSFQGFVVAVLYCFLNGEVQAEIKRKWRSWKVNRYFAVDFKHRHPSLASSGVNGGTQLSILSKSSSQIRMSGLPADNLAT

[14] = Half life in Sprague-Dawley rat at 10 mg/kg,sc measured upto 6 hrs by LC-MS analysis; format: ADME, organism-based; conditions: in vivo
[15] = molecular target: T3, Vasoactive intestinal polypeptide receptor 2 (Homo sapiens, UniProt P41587); assay: Antagonist activity at VPAC2 in human SH-SY5Y cells assessed as inhibition of PACAP38-induced cAMP accumulation pre-incubated for 30 mins followed by agonist addition and measured after 75 mins by Eu-cAMP tracer based LANCE ultra cAMP assay; format: functional, cell-based
T3 sequence (P41587 whole entry): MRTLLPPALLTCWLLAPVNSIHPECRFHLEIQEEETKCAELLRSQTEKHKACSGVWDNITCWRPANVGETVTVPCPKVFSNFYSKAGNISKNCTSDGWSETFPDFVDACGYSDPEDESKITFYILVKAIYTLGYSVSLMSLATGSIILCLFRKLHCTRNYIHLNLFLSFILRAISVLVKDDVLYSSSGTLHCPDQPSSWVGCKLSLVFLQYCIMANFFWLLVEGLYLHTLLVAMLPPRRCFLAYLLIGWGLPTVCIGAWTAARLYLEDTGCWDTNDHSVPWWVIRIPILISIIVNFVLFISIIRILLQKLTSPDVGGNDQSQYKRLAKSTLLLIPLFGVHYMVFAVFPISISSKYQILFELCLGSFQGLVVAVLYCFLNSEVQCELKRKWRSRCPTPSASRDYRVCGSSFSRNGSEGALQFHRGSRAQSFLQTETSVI

[16] = molecular target: T4, Vasoactive intestinal polypeptide receptor 1 (Homo sapiens, UniProt P32241); assay: Antagonist activity at VPAC1 in human SH-SY5Y cells assessed as inhibition of PACAP38-induced cAMP accumulation pre-incubated for 30 mins followed by agonist addition and measured after 75 mins by Eu-cAMP tracer based LANCE ultra cAMP assay; format: functional, cell-based
T4 sequence (P32241 whole entry): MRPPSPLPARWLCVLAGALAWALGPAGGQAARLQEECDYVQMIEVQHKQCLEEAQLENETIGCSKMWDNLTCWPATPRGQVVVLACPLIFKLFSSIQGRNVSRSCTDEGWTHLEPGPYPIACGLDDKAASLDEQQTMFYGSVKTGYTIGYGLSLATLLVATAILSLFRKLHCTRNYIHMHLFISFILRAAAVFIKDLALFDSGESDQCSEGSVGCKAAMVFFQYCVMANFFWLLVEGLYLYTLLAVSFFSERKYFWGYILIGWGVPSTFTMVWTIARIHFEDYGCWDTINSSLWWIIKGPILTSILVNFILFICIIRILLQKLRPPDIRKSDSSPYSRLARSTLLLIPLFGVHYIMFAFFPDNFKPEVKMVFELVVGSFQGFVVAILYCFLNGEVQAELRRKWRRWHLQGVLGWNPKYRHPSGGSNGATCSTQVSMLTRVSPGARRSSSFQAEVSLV

[17] = molecular target: T4, Vasoactive intestinal polypeptide receptor 1; assay: Agonist activity at VPAC1 in human SH-SY5Y cells assessed as cAMP accumulation incubated for 60 mins by Eu-cAMP tracer based LANCE ultra cAMP assay; format: functional, cell-based
[18] = molecular target: T2, Pituitary adenylate cyclase-activating polypeptide type I receptor; assay: Agonist activity at PAC1R in human SH-SY5Y cells assessed as cAMP accumulation incubated for 60 mins by Eu-cAMP tracer based LANCE ultra cAMP assay; format: cell-based
Target sequence in this assay (P41586 whole entry): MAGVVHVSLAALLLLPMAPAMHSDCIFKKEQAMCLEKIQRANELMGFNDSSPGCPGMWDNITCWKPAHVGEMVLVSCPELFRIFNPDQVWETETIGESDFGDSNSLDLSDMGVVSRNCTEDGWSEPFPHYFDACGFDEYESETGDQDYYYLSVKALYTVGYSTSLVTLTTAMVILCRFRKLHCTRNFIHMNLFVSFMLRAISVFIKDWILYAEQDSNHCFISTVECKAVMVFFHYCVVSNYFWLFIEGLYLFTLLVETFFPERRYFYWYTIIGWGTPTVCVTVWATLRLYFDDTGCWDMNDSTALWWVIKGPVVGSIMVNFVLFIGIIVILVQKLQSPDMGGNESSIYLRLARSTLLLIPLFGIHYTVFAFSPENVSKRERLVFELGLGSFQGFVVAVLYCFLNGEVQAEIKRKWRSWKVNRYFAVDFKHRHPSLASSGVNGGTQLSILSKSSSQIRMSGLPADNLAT

[19] = molecular target: T3, Vasoactive intestinal polypeptide receptor 2; assay: Agonist activity at VPAC2 in human SH-SY5Y cells assessed as cAMP accumulation incubated for 60 mins by Eu-cAMP tracer based LANCE ultra cAMP assay; format: functional, cell-based

CC[C@H](C)[C@H](NC(=O)[C@H](C)NC(=O)[C@H](CCCCN)NC(=O)[C@H](CCCNC(=N)N)NC(=O)[C@H](Cc1ccccc1)NC(=O)[C@H](CCC(N)=O)NC(=O)[C@@H]1CSSC[C@H](N)CC(=O)N[C@@H](CC(=O)O)C(=O)N[C@@H](C)C(=O)N[C@@H]([C@@H](C)O)C(=O)N1)C(=O)N[C@@H](CC(=O)O)C(=O)N[C@@H](CC(=O)O)C(=O)N[C@H]1CSSC[C@@H](C(=O)N[C@@H](CCSC)C(=O)N[C@@H](CCCCN)C(=O)N[C@@H](CCC(N)=O)C(=O)N[C@@H](CCCCN)C(=O)N[C@@H](CCCCN)C(=O)N[C@@H](CCCCN)C(=O)N[C@@H](CCC(=O)O)C(=O)N[C@@H](Cc2c[nH]c3ccccc23)C(=O)N[C@@H](CCCCN)C(=O)N[C@@H](C)C(=O)NCC(N)=O)NC(=O)[C@H](C)NC(=O)[C@H](CCCCN)NC(=O)[C@H](Cc2ccccc2)NC(=O)[C@H](C(C)C)NC(=O)[C@H](CO)NC(=O)[C@H](CO)NC(=O)[C@H](Cc2cnc[nH]2)NC(=O)[C@H](Cc2ccc(O)cc2)NC(=O)[C@H](C)NC(=O)[C@H](CCC(N)=O)NC(=O)[C@H](CCCNC(=N)N)NC(=O)[C@H](C)NC1=O (HELM PEPTIDE1{[N[C@@H](CS[*:3])CC(=O)[*:2]].D.A.T.C.Q.F.R.K.A.I.D.D.C.A.R.Q.A.Y.H.S.S.V.F.K.A.C.M.K.Q.K.K.K.E.W.K.A.G.[am]}$PEPTIDE1,PEPTIDE1,1:R3-5:R3|PEPTIDE1,PEPTIDE1,14:R3-27:R3$$$V2.0)
Activity (Rattus norvegicus): 110% | IC90 [1]: 0.14 nM | bioavailability [2]: 28% | half-life [3]: 58.1 min | AUC(0-inf) [4]: 1.65 µM·h | clearance [5]: 6.55 mL/min/kg | Cmax [6]: 4170 nM | Vd [7]: 0.217 L/kg | AUC(0-inf) [8]: 1.16 µM·h | IC90 ([9]; filed as antagonist, time 105.0 min): 0.42 nM | Tmax [10]: 15 min | Cmax [11]: 1110 nM | IC90 [12]: 0.17 nM | IC90 [13]: 0.12 nM | half-life [14]: 41.3 min

CSCC[C@H](NC(=O)[C@H](CCC(N)=O)NC(=O)[C@H](CCCCN)NC(=O)[C@H](CCCNC(=N)N)NC(=O)[C@H](Cc1ccc(O)cc1)NC(=O)[C@H](CCCNC(=N)N)NC(=O)[C@H](CO)NC(=O)[C@H](Cc1ccc(O)cc1)NC(=O)[C@H](CO)NC(=O)[C@H](CC(=O)O)NC(=O)[C@@H](NC(=O)[C@@H](N)Cc1ccccc1)[C@@H](C)O)C(=O)N[C@@H](C)C(=O)N[C@H](C(=O)N[C@@H](CCCCN)C(=O)N[C@@H](CCCCN)C(=O)N[C@@H](Cc1ccc(O)cc1)C(=O)N[C@@H](CC(C)C)C(=O)N[C@@H](C)C(=O)N[C@@H](C)C(=O)N[C@H](C(=O)N[C@@H](CC(C)C)C(=O)NCC(=O)N[C@@H](CCCCN)C(=O)N[C@@H](CCCNC(=N)N)C(=O)N[C@@H](Cc1ccc(O)cc1)C(=O)N[C@@H](CCCCN)C(=O)N[C@@H](CCC(N)=O)C(=O)N[C@@H](CCCNC(=N)N)C(=O)N[C@H](C(=O)N[C@@H](CCCCN)C(=O)N[C@@H](CC(N)=O)C(=O)N[C@@H](CCCCN)C(N)=O)C(C)C)C(C)C)C(C)C
IC50 [15]: 4.5 nM | IC50 [16]: 118 nM | IC50 [9]: 3.5 nM

CC[C@H](C)[C@H](NC(=O)CNC(=O)[C@H](CC(=O)O)NC(=O)[C@H](CO)NC(=O)[C@@H](N)Cc1cnc[nH]1)C(=O)N[C@@H](Cc1ccccc1)C(=O)N[C@H](C(=O)N[C@@H](CC(=O)O)C(=O)N[C@@H](CO)C(=O)N[C@@H](Cc1ccc(O)cc1)C(=O)N[C@@H](CO)C(=O)N[C@@H](CCCNC(=N)N)C(=O)N[C@@H](Cc1ccc(O)cc1)C(=O)N[C@@H](CCCNC(=N)N)C(=O)N[C@@H](CCCCN)C(=O)N[C@@H](CCC(N)=O)C(=O)N[C@@H](CCSC)C(=O)N[C@@H](C)C(=O)N[C@H](C(=O)N[C@@H](CCCCN)C(=O)N[C@@H](CCCCN)C(=O)N[C@@H](Cc1ccc(O)cc1)C(=O)N[C@@H](CC(C)C)C(=O)N[C@@H](C)C(=O)N[C@@H](C)C(=O)N[C@H](C(=O)N[C@@H](CC(C)C)C(=O)NCC(=O)N[C@@H](CCCCN)C(=O)N[C@@H](CCCNC(=N)N)C(=O)N[C@@H](CCCCN)C(=O)N[C@@H](Cc1ccc(O)cc1)C(=O)N[C@@H](CCCCN)C(=O)N[C@@H](CCC(N)=O)C(=O)N[C@@H](CCCNC(=N)N)C(=O)N[C@H](C(=O)N[C@@H](CCCCN)C(=O)N[C@@H](CC(N)=O)C(=O)N[C@@H](CCCCN)C(N)=O)C(C)C)C(C)C)C(C)C)[C@@H](C)O
EC50 [17]: 0.03 nM | EC50 [18]: 0.03 nM | EC50 [19]: 0.06 nM
